This is an account of results in ChEMBL document CHEMBL6096659, “Towards the design of ligands of the internal pocket TEADs C-terminal domain” (Eur J Med Chem, 2025).

Experiment [1] relates to MDA-MB-231. Briefly: Inhibition of YAP/TAZ-TEAD interaction in human MDA-MB-231 cells assessed as reduction in CTGF expression at 100 nM measured after 48 hrs by Western blot analysis. It counts as cell-based.
The subject of experiment [2] is MDA-MB-231. Briefly: Inhibition of YAP/TAZ-TEAD interaction in human MDA-MB-231 cells assessed as reduction in Cyr61 expression at 100 nM measured after 48 hrs by Western blot analysis. It counts as cell-based.
The test system of experiment [3] is MDA-MB-231. The experiment is described as follows: Inhibition of YAP/TAZ-TEAD interaction in human MDA-MB-231 cells assessed as reduction in BIRC5 expression at 100 nM measured after 48 hrs by Western blot analysis. It counts as cell-based.
The subject of experiment [4] is MDA-MB-231. The experiment is described as follows: Inhibition of YAP/TAZ-TEAD interaction in human MDA-MB-231 cells assessed as reduction in AXL expression at 100 nM measured after 48 hrs by Western blot analysis. The experiment is classed as cell-based.
A short description of experiment [5]: Inhibition of TEAD transcriptional activity in HEK293T cells transfected with 8xGTIIC-luciferase incubated for 24 hrs by luciferase reporter assay. The experiment is classed as cell-based. The following applies: Homo sapiens, HEK-293T.
For experiment [6], the target named is Transcriptional enhancer factor TEF-4 (Homo sapiens) (UniProt Q15562). Briefly: Binding affinity to human TEAD2 (247 to 447 residues) assessed as adduct formation at 400 to 800 uM incubated for 24 hrs by MALDI-TOF mass spectrometric analysis. As to conditions: dose 400-800 µM.
Chain of Transcriptional enhancer factor TEF-4 (Homo sapiens) (Q15562 whole entry, the tested form may be a part): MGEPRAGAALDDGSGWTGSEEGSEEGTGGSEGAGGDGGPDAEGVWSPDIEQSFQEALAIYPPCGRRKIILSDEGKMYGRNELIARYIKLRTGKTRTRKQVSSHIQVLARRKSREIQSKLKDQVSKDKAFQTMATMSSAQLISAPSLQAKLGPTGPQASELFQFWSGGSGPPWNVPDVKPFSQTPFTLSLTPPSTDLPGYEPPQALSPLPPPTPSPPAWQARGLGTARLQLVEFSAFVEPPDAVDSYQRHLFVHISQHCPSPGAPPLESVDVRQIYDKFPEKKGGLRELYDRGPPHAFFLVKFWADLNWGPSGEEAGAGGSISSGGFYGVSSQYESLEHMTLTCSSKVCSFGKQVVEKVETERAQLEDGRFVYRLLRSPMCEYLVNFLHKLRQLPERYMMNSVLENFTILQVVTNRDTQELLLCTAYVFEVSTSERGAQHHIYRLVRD
For experiment [7] the target is unchanged. Briefly: Binding affinity to human TEAD2 (247 to 447 residues) cysteine residue assessed as adduct formation at 800 uM incubated for 24 hrs by MALDI-TOF mass spectrometric analysis.
The subject of experiment [8] is HEK293T. Briefly: Inhibition of TEAD transcriptional activity in HEK293T cells transfected with 8xGTIIC-luciferase assessed as residual activity at 10 uM incubated for 24 hrs by luciferase reporter assay relative to control. As to conditions: Homo sapiens. The experiment is classed as cell-based.

Calls of active or inactive are those of the source. The calls are words filed in the database; no cut-off is given here.

`Cc1nc(Nc2ncc(C(=O)Nc3c(C)cccc3Cl)s2)cc(N2CCN(CCO)CC2)n1`: in experiment [1], the inhibition entry was “Active; Compound Showed Moderate Effect”. The inhibition entry in experiment [2], in experiment [3] and in experiment [4] was “Active” throughout.
Consider `O=C(CCl)NCCCn1ccc2cc(OCc3ccccc3)ccc21`, for which the IC50 in experiment [5] turned out to be 3.6 µM. Also, the Activity result in experiment [6] was “Active; New Peak Appeared At Higher M/Z Values And Peak For Unmodified Human Tead2 At 26687 M/Z Disappeared”; in experiment [7], “Active; Double Adduct Formation Observed Indicating Selective Reaction With Single Cysteine Residue”; in experiment [8], 16%.
